Test results taken from patent US12637461B2, “Compounds for the activation of AMPK” (PFIZER INC., priority 2022, dated 2026).

Biological target: T1, human AMPK α2β2γ3 (Homo sapiens, UniProt O43741+P54646+Q9UGI9)
T1 construct: expressed in transfected cells; host or cells: HEK293AD cells, MaxCyte bulk electroporation
Test: Primary cellular assay: γ3 associated phospho-Thr172 AMPK detection (custom pAMPK Surefire AlphaLISA) in α2β2γ3 bulk transiently transfected HEK293 cells
Format: cell-based
Settings: activation of human AMPK α2β2γ3 (γ3 pThr172 AMPK signal) in transiently transfected HEK293 cells, 20 minutes compound incubation; for EC50: geometric mean EC50, read-out: Assay GMean EC50; for Assay GMean Asy. Max (%) / Emax: geometric mean of the asymptotic max; for Emax: 20 min, read-out: Assay GMean Asy. Max (%)
Experimental: Primary Cellular Assay—γ3 Associated Phospho-Thr172 AMPK Detection in α2β2γ3 Bulk Transiently Transfected HEK293 Cells
The cellular potencies of the compounds were evaluated using a custom pAMPK Surefire AlphaLISA designed to assess γ3 associated phospho-Thr172 AMPK and modulation by small molecules in AMPK α2β2γ3 transiently transfected HEK293 cells.
A pAMPK Surefire AlphaLISA (PE-ASLU-PAMPK) assay available through Perkin Elmer was modified to selectively assess γ3 pThr172 AMPK content (as opposed to total pThr172 AMPK) by labeling a γ3 antibody with a CaptSure™ tag and substituting it for the total α1c/α2 AMPK labeled antibodies in the kit. In the modified assay, the overall abundance of γ3 AMPK is recognized by the CaptSure γ3 antibody and the phosphorylated AMPK is recognized by biotinylated pThr172 antibody. Subsequent reactivity with streptavitin donor beads and anti CaptSure conjugated acceptor beads brings the molecules into close proximity. Upon excitation at 680 nm, the donor bead converts ambient oxygen to a more excited singlet state which reacts with the acceptor bead and emits light at 520 to 620 nm. The intensity of the signal is proportional to the level of γ3 associated pThr172 AMPK phosphorylation.
In short, AMPK-α2+β2+γ3 MaxCyte bulk-transfected HEK293AD cells were thawed in growth media (DMEM High glucose+10% FBS) in a collagen-coated T150 flask and the cells were allowed to adhere and grow overnight in a 37° C. incubator. The following day, the cells were harvested and resuspended in plating medium (DMEM Low glucose+10% FBS) at a concentration of 100,000 cells per mL and 50 μL of this cell suspension was added to all wells of a 384-well plate using a Multidrop Combi. The cells were allowed to adhere and grow for 2 days in a 37° C. incubator. On assay day, compounds were diluted in 100% dimethyl sulfoxide (DMSO) in a 11 dose, half log dilution scheme and spotted in the cell plates at 1000× the final concentration. Compound incubations were performed in plating media for 20 minutes. Cells were washed with PBS, lysed and the signal was generated by subsequent additions of RB1 reagent from the kit, 1:1000 CaptSure γ3 labeled antibody in 1× immunoassay buffer, Anti-CaptSure acceptor beads and Streptavitin donor beads at final concentration of […]. The γ3 pThr172 AMPK signal was developed using EnVision™ multilabel reader (Perkin Elmer) using Alphascreen settings. The fluorescence emission was used to calculate the % effect relative to the HPE (30 μM) and ZPE (DMSO). EC50 curves were generated with the ActivityBase software using the XLfit model 205 to determine EC50 and Emax values.
For screening purposes, bulk AMPK-α2+β2+γ3 MaxCyte bulk transfection into HEK293AD cells were generated to support SAR screening as follows.
HEK293AD cells were seeded into 10 flasks at 2.7×10^7 cells per flask. The following day 12 mL of Trypl E dissociation reagent were added to each flask to lift the cells and the cells were then spun at 300×g for 5 minutes. Cells were washed once in MaxCyte EP buffer and then resuspended in MaxCyte EP buffer at 1×10^8 cells per mL. For transfection, 500×10^6 cells in 500 μl MaxCyte EP buffer were placed in a CL1.1 Processing Assembly (electroporation cell) with 1 mg/mL ([…]) of each of the plasmids pcDNA3.1(+)-human AMPK alpha 2, pcDNA3.1(+)-human AMPK beta 2 and pcDNA3.1(+)-human AMPK gamma 3 and the electroporation was carried out on the MaxCyte STX using the HEK293 electroporation protocol. Following electroporation, cells were transferred to a T175 flask containing growth medium (DMEM High glucose+10% FBS) and allowed to recover for 25 minutes, then the cells were resuspended to final volume of 900 mL and distributed into 6XT175 flasks and allowed to adhere and grow overnight in a 37° C. incubator. […]

T1 sequence (P54646 whole entry): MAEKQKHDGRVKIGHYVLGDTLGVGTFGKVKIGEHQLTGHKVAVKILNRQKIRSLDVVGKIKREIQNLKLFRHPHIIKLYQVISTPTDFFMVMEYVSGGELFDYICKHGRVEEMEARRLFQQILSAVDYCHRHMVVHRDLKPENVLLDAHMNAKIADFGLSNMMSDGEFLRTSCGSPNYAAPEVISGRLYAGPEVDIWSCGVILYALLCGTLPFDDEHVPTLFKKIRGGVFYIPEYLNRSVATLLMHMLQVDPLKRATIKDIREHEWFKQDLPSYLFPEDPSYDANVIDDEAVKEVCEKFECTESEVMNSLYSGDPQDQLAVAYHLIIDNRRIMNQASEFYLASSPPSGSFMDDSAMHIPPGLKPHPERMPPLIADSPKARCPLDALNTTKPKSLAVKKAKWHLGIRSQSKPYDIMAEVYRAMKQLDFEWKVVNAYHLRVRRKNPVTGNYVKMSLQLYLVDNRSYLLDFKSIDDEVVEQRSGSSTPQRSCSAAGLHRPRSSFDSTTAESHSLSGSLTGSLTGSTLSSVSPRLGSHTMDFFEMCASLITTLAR
T1 sequence (O43741 whole entry): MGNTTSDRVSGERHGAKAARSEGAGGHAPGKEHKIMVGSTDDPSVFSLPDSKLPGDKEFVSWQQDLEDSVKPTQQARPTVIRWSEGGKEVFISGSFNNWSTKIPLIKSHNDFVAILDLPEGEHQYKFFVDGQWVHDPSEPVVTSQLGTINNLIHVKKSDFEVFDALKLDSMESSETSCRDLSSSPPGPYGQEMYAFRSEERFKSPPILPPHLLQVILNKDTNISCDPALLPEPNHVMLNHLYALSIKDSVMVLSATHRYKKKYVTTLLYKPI
T1 sequence (Q9UGI9 whole entry): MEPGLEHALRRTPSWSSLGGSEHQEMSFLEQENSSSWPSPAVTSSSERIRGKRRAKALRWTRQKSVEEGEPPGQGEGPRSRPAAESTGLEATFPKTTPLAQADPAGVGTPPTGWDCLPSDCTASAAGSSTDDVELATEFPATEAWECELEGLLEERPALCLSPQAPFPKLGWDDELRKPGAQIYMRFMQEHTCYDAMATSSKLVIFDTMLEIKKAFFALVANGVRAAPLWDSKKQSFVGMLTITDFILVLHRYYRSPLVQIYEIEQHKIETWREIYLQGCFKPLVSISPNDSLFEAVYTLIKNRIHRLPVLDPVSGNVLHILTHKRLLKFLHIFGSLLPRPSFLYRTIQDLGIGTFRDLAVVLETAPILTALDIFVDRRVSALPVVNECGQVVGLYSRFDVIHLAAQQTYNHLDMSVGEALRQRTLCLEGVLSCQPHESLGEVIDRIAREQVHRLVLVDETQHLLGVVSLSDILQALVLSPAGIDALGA

Row | Structure (SMILES) | EC50 [nM] | Assay GMean Asy. Max (%) | Emax [%]
1 | Cn1cc(F)c(N2C[C@](C)(c3cccc(Cl)c3F)c3c(cnc(NC4CN(C(=O)C(C)(O)C5CC5)C4)c3F)C2=O)n1 (single isomer, unassigned) [Example 9] | > 55.7 | 118.8 | –
2 | Cn1cc(F)c(N2C[C@](C)(c3cccc(Cl)c3F)c3c(cnc(NC4CN(C(=O)C(C)(O)C5CC5)C4)c3F)C2=O)n1 (single isomer, unassigned) [Example 10] | 21.3 | 89.6 | –
3 | C[C@]1(c2cccc(Cl)c2F)CN(c2ccc([C@@H]3COCCN3)cn2)C(=O)c2cnc(NC3CN(C(=O)c4cccnn4)C3)c(F)c21 (single isomer, unassigned) [Example 17] | 144 | – | 120
4 | Cn1cc(F)c(N2CC(C)(c3ccc(F)c(Cl)c3F)c3c(cnc(NC4CN(C(=O)[C@@H]5C[C@@H]5F)C4)c3F)C2=O)n1 (single isomer, unassigned) [Example 23] | 28.1 | – | 91.4
5 | Cn1cc(F)c(N2CC(C)(c3cccc(Cl)c3F)c3c(cnc(N[C@@H]4CCN(C(=O)N5C[C@@H]6C[C@H]5CO6)C4)c3F)C2=O)n1 (single isomer, unassigned) [Example 25] | 160 | – | 52.2
6 | CC1(c2cccc(Cl)c2F)CN(c2ncccc2F)C(=O)c2cnc(NC3CN(C(=O)C4(O)CC4)C3)nc21 (single isomer, unassigned) [Example 27, 8-(3-Chloro-2-fluorophenyl)-6-(3-fluoropyridin-2-yl)-2-{[1-(1-hydroxycyclopropane-1-carbonyl)azetidin-3-yl]amino}-8-methyl-7,8-dihydropyrido[4,3-d]pyrimidin-5(6H)-one] | 177 | – | 174
7 | CC1(c2cccc(Cl)c2F)CN(c2ncccc2F)C(=O)c2cnc(NC3CN(C(=O)C4(O)CC4(C)C)C3)nc21 (single isomer, unassigned) [Example 29, 8-(3-Chloro-2-fluorophenyl)-6-(3-fluoropyridin-2-yl)-2-{[1-(1-hydroxy-2,2-dimethylcyclopropane-1-carbonyl)azetidin-3-yl]amino}-8-methyl-7,8-dihydropyrido[4,3-d]pyrimidin-5(6H)-one] | 181 | 216 | –
8 | CN(C)c1nc(NC2CN(C(=O)C3(O)CC3)C2)nc2c1C(=O)N(c1ncccc1F)CC2(C)c1cccc(Cl)c1F (single isomer, unassigned) [Example 38, 8-(3-Chloro-2-fluorophenyl)-4-(dimethylamino)-6-(3-fluoropyridin-2-yl)-2-{[1-(1-hydroxycyclopropane-1-carbonyl)azetidin-3-yl]amino}-8-methyl-7,8-dihydropyrido[4,3-d]pyrimidin-5(6H)-one] | 146 | – | 217
9 | Cn1cc(F)c(N2C[C@](C)(c3cccc(Cl)c3F)c3c(cnc(NC4CN(C(=O)C(O)CC(F)(F)F)C4)c3F)C2=O)n1 (single isomer, unassigned) [compound 44] | 78.1 | 77.9 | –
10 | Cn1cc(F)c(N2C[C@](C)(c3cccc(Cl)c3F)c3c(cnc(NC4CN(C(=O)C(O)CC(F)(F)F)C4)c3F)C2=O)n1 (single isomer, unassigned) [compound 45] | 66.4 | 100 | –
11 | COCC(C)(O)C(=O)N1CC(Nc2ncc3c(c2F)C(C)(c2cccc(Cl)c2F)CN(c2nn(C)cc2F)C3=O)C1 (single isomer, unassigned) [compound 46] | 86.1 | – | 111

The remaining compounds from weak to strong by EC50, led by results:

Row | EC50 [nM] | Assay GMean Asy. Max (%) | Emax [%] | Structure (SMILES)
12 | 759 | – | 75.4 | C[C@]1(c2cccc(Cl)c2F)CN(c2ccc([C@H]3COCCN3)cn2)C(=O)c2cnc(NC3CN(C(=O)c4cccnn4)C3)c(F)c21 (single isomer, unassigned) [Example 16]
13 | 740 | – | 178 | Cn1cc(F)c(N2CC(C)(c3cccc(Cl)c3F)c3nc(NC4CN(C(=O)[C@@H]5C[C@@H]5F)C4)ncc3C2=O)n1 (single isomer, unassigned) [Example 30]
14 | 571 | 98.9 | – | CC1(c2cccc(Cl)c2F)CN(c2ncccc2F)C(=O)c2cnc(NC3CN(C(=O)C4(O)CC4(C)C)C3)nc21 (single isomer, unassigned) [Example 28, 8-(3-Chloro-2-fluorophenyl)-6-(3-fluoropyridin-2-yl)-2-{[1-(1-hydroxy-2,2-dimethylcyclopropane-1-carbonyl)azetidin-3-yl]amino}-8-methyl-7,8-dihydropyrido[4,3-d]pyrimidin-5(6H)-one]
15 | 264 | 105 | – | COCC(C)(O)C(=O)N1CC(Nc2ncc3c(c2F)C(C)(c2cccc(Cl)c2F)CN(c2nn(C)cc2F)C3=O)C1 (single isomer, unassigned) [compound 47]
16 | 221 | – | 110 | CC1(c2cccc(Cl)c2F)CN(c2ccc(N)cn2)C(=O)c2cnc(NC3CN(C(=O)[C@@H]4C[C@@H]4F)C3)nc21 (single isomer, unassigned) [Example 31]
17 | 219 | – | 173 | CC1(c2cccc(Cl)c2F)CN(c2ncccc2F)C(=O)c2cnc(NC3CN(C(=O)N4C[C@H]5C[C@@H]4[C@@H](O)C5)C3)nc21 (single isomer, unassigned) [Example 32]
18 | 183 | – | 47.6 | CC1(c2cccc(Cl)c2F)CN(c2ncccc2F)C(=O)c2cnc(NC3CN(C(=O)CO)C3)nc21 (single isomer, unassigned) [Example 26, 8-(3-Chloro-2-fluorophenyl)-6-(3-fluoropyridin-2-yl)-2-{[1-(hydroxyacetyl)azetidin-3-yl]amino}-8-methyl-7,8-dihydropyrido[4,3-d]pyrimidin-5(6H)-one]
19 | 172 | 77.4 | – | Cn1cc(F)c(N2C[C@](C)(c3cccc(Cl)c3F)c3c(cnc(NC4CN(C(=O)C(O)C5CC5)C4)c3F)C2=O)n1 (single isomer, unassigned) [compound 43]
20 | 79.5 | – | 139 | CN1CCC(C(=O)N2CC[C@@H](Nc3ncc4c(c3F)C(C)(c3cccc(Cl)c3F)CN(c3ncccc3F)C4=O)C2)CC1 (single isomer, unassigned) [Example 24]
21 | 59.1 | – | 76.2 | Cn1cc(F)c(N2C[C@](C)(c3cccc(Cl)c3F)c3c(cnc(NC4CN(C(=O)C(O)C5CC5)C4)c3F)C2=O)n1 (single isomer, unassigned) [compound 42]
22 | 31.7 | – | 208 | CN(C(=O)CN1CC(Nc2ccc3c(c2F)C(C)(c2cccc(Cl)c2F)CN(c2nn(C)cc2F)C3=O)C1)C1CC1 (single isomer, unassigned) [Example 34, 2-(3-{[4-(3-Chloro-2-fluorophenyl)-5-fluoro-2-(4-fluoro-1-methyl-1H-pyrazol-3-yl)-4-methyl-1-oxo-1,2,3,4-tetrahydroisoquinolin-6-yl]amino}azetidin-1-yl)-N-cyclopropyl-N-methylacetamide]
23 | 19.1 | – | 163 | CC1(c2cccc(Cl)c2F)CN(c2ccc(CO)cn2)C(=O)c2ccc(NC3CN(C(=O)N4C[C@@H]5C[C@H]4CO5)C3)c(F)c21 (single isomer, unassigned) [Example 37]
